Source: patent US10646527B2, “Method of using a Mangifera indica composition in the treatment of obesity” (Vidya Herbs, Inc., priority 2015, dated 2020)
Marks after values point to notes of the source that are not given here.

Tests used:
[1] = Lipid peroxidation inhibitory assay (TBARS, egg yolk homogenate); format: biochemical; conditions: Sample Concentration: 100-500 μg/ml
Method: A modified thiobarbituric acid reactive species (TBARS) assay (Ohkowa et al., 1979) is used to measure lipid peroxidation formed using egg yolk homogenate as lipid rich media (Ruberto et al., 2000).
Take 0.5 ml of egg homogenate (10% in distilled water) and 0.1 ml of test sample in the concentration range 100-500 μg/ml in a test tube and volume made up to 1 ml by adding distilled water. Finally add 0.05 ml ferrous sulphate (0.07M) to the above mixture and incubated for 30 min to induce the lipid peroxidation. Thereafter added 1.5 ml of 20% acetic acid (pH 3.5) and 1.5 ml of (0.8% in 1.1% SDS) TBA and 0.05 ml (20%) TCA then heated in boiling water bath for 60 min. After cooling 5 ml of butanol was added to all the test tubes and centrifuged at 3000 rpm for 10 min. Measured the absorbance of the organic upper layer at 532 nm. The percentage inhibition of lipid peroxidation was calculated from the formula,
[formula] where: Ab (cont)—is the absorbance of the control Ab (test sample)—is the absorbance of the test sample/standard

[2] = Hydrogen peroxide (H2O2) scavenging activity; format: biochemical
Method: Hydrogen peroxide scavenging activity of the composition was estimated in this study where initially, composition solutions were prepared at different concentrations in distilled water and the resultant solutions were mixed in 0.6 ml of 40 mM H2O2 solution prepared in phosphate buffer (0.1 M pH 7.4) and incubated for 10 min. The absorbance was measured at 230 nm against a blank solution containing H2O2. Similar procedure was repeated for the composition, mangiferin, and quercetin. The amount of hydrogen peroxide radical inhibited was calculated using the following equation. The result is expressed as % H2O2 radical scavenging activity.
[formula] [formula] where: Abs control—Absorbance of H2O2 radical Abs sample—Absorbance of sample extract/standard (the composition, mangiferin and quercetin) Result: […]

[3] = test system: high fat diet fed male Wistar rats; assay: Anti-obesity activity in high fat diet fed rats; format: in vivo, rat; conditions: Group III, Orlistat 30 mg/kg
Method: Objective: The objective was to investigate the effect of the composition against high fat diet fed rats.
Animals: male Wistar rats (160 to 200 g); no. of animals: 36; housing: 3/cage, 12 hrs light/dark cycle; temperature: 25±2° c.
Model & composition of the diet: high fat diet in rats: 25% lard, 5% soybean oil; 5% starch; 65% normal commercial available rat feed
Groups: male Wistar rats were divided into six groups with six animals in each group.

O=c1c(O)c(-c2ccc(O)c(O)c2)oc2cc(O)cc(O)c12 [Quercetin(Standard), Quercetin]
Lipid peroxidation % inhibition [1]: 53.44% | % H2O2 radical scavenging activity ([2]; 10 μg/ml): 5.6% | % H2O2 radical scavenging activity ([2]; 20 μg/ml): 14.55% | % H2O2 radical scavenging activity ([2]; 30 μg/ml): 18.86% | % H2O2 radical scavenging activity ([2]; 40 μg/ml): 33.96%

CCCCCCCCCCC[C@@H](C[C@@H]1OC(=O)[C@H]1CCCCCC)OC(=O)[C@H](CC(C)C)NC=O [Orlistat]
Atherogenic Index [3]: 1.39 ± 0.15^***b | BAT (brown adipose tissue) [3]: 0.28 ± 0.01^nsb | Difference in body weight gain [3]: 79.82 ± 2.58 ^b | Epididymal fat pad Left [3]: 0.52 ± 0.03^nsb | Epididymal fat pad Right [3]: 0.55 ± 0.02^nsb | Liver organ weight [3]: 2.8 ± 0.08***^b
